Test results from patent US9931320B2, “Parasiticidal oral veterinary compositions comprising systemically-acting active agents, methods and uses thereof” (MERIAL INC., priority 2012, dated 2018).

Tested on: Trichuris vulpis (whipworm)
Assay: Efficacy against Trichuris vulpis (whipworm) in dogs (Example 14)
Details: after 7 days; treated on Day 0; 0.5 mg/kg milbemycin oxime alone or with 2.5 mg/kg Compound A; naturally infected dogs

## milbemycin oxime
  Efficacy against T. vulpis (parasite counts): > 94%
